The values that follow come from ChEMBL document CHEMBL4699398, “The synthesis and biological evaluation of sanguinarine derivatives as anti-non-small cell lung cancer agents” (RSC Med Chem, 2020).

In test [1] the test system is NCI-H1975. Kind of test: Antiproliferative activity against human H1975 cells assessed as inhibition of cell growth incubated for 72 hrs by CCK-8 assay. The conditions noted are these: NCI-H1975, 72 h.
Test [2] has as its system A549. Kind of test: Antiproliferative activity against human A549 cells assessed as inhibition of cell growth incubated for 72 hrs by CCK-8 assay. Conditions: A549, 72 h.
The test system of test [3] is HeLa. Kind of test: Antiproliferative activity against human HeLa cells assessed as reduction in cell viability after 24 hrs by MTT assay. The class given is functional, cell-based.

The structures appear in SMILES notation.

On to `Cn1c(=O)c2c3c(ccc2c2ccc4cc5c(cc4c21)OCO5)OCO3`, for which the IC50 in test [1] and in test [2] was over 30000 nM throughout.

In the case of `CCN1Cc2c(ccc3c2OCO3)-c2ccc3cc4c(cc3c21)OCO4`, the IC50 in test [1] and in test [2] was over 30000 nM throughout.

Consider `CC(C)NC1c2c(ccc3c2OCO3)-c2ccc3cc4c(cc3c2N1C)OCO4` (centres undefined), for which the IC50 was determined as 960 nM in test [1] and 1460 nM in test [2].

On to `CCCN1Cc2c(ccc3c2OCO3)-c2ccc3cc4c(cc3c21)OCO4`, for which the IC50 in test [1] and in test [2] was over 30000 nM throughout.

`c1cc2c(cnc3c4cc5c(cc4ccc23)OCO5)c2c1OCO2`: the IC50 in test [1] and in test [2] was over 30000 nM each time.

In the case of `C[n+]1cc2c3c(ccc2c2ccc4cc5c(cc4c21)OCO5)OCO3` [SANGUINARIUM CHLORIDE], the IC50 in test [3] came to 2430 nM; in test [1], 1320 nM; in test [2], 1590 nM.

`CN1Cc2c(ccc3c2OCO3)-c2ccc3cc4c(cc3c21)OCO4` [DIHYDROSANGUINARINE]: the IC50 in test [1] was 19100 nM; in test [2] it was over 30000 nM.

In the case of `CN1c2c(ccc3cc4c(cc23)OCO4)-c2ccc3c(c2C1NC1CCCC1)OCO3` (centres undefined), the IC50 in test [1] came out at 1570 nM; in test [2], 1970 nM.

Turning to `COC1c2c(ccc3c2OCO3)-c2ccc3cc4c(cc3c2N1C)OCO4` (centres undefined), the IC50 in test [1] came out at 1170 nM; in test [2] it was 1590 nM.

As to `CN1c2c(ccc3cc4c(cc23)OCO4)-c2ccc3c(c2C1C#N)OCO3` (centres undefined), the IC50 was determined as 790 nM in test [1] and 960 nM in test [2].

For the compound `CCCNC1c2c(ccc3c2OCO3)-c2ccc3cc4c(cc3c2N1C)OCO4` (centres undefined), the figures for the IC50 in test [1] and in test [2] were 1000 nM and 1480 nM, respectively.

For the compound `CCNC1c2c(ccc3c2OCO3)-c2ccc3cc4c(cc3c2N1C)OCO4` (centres undefined), the results for the IC50 in test [1] and in test [2] were 940 nM and 1250 nM, respectively.

Take `CN1c2c(ccc3cc4c(cc23)OCO4)-c2ccc3c(c2C1NCc1ccccc1)OCO3` (centres undefined): the IC50 is 3130 nM in test [1] and 4350 nM in test [2].

As for `CC1c2c(ccc3c2OCO3)-c2ccc3cc4c(cc3c2N1C)OCO4` (centres undefined), the IC50 in test [1] and in test [2] was over 30000 nM throughout.
